The record followed here is PMC5509550, “Development of a Novel Lead that Targets M. tuberculosis Polyketide Synthase 13” (Cell, 2017).

Values after ≈ are worked out from the molar mass of the structure shown. Like-named read-outs stand apart in the source and are kept apart here.

The subject of one data set is M. tuberculosis H37Rv. Also noted: species or system Mycobacterium tuberculosis. The note with it: in vivo.
The next data set concerns M. tuberculosis Erdman. On the set-up: species or system Mycobacterium tuberculosis. The note with it: in vivo.
The target in the next data set is T1, CYP1A2 (Homo sapiens, UniProt P05177).
T1 sequence (P05177 1-516): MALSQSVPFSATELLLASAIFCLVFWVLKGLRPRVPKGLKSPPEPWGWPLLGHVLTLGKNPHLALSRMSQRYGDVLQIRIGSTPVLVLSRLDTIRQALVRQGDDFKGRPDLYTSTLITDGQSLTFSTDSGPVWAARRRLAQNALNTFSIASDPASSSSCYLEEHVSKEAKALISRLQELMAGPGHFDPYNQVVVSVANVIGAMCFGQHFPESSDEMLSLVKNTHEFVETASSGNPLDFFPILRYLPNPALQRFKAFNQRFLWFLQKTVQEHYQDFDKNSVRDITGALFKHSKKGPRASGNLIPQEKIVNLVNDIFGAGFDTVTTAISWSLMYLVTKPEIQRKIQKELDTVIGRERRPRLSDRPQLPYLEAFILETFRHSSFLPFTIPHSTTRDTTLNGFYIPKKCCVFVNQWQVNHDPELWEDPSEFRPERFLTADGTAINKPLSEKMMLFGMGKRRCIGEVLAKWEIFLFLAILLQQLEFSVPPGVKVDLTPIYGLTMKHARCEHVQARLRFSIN
Nature of the data set: biochemical.

The target of the next data set is CYP2C9 (Homo sapiens, UniProt P11712). Nature of the data set: biochemical.
Chain of CYP2C9 (P11712 whole entry): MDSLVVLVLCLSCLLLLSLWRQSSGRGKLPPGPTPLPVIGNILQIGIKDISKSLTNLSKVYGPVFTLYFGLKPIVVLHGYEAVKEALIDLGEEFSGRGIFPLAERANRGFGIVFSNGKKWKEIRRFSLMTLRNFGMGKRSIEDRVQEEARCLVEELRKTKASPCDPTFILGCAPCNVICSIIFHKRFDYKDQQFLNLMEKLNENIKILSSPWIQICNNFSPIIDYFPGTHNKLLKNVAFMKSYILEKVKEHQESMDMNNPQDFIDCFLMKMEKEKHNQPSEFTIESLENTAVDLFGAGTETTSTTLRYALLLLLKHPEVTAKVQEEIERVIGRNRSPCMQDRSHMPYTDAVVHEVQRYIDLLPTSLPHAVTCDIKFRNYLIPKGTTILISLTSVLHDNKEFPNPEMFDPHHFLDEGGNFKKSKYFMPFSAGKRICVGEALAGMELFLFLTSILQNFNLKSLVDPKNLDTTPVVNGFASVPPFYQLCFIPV
Another data set concerns the target CYP2D6 (Homo sapiens, UniProt P10635). Nature of the data set: biochemical.
Data set [1] relates to Mtb mc^27000. Description: microbe, parasite or virus in culture. Format: cell-based, Mycobacterium tuberculosis. The note with it: for MIC: Mycobacterium tuberculosis, single drug in the synergy study, read-out: MIC of the drug alone.
In data set [2] the test system is Mtb mc^27000. Description: microbe, parasite or virus in culture. Format: cell-based, Mycobacterium tuberculosis. The note with it: for MIC: Mtb mc^27000, liquid medium, 96-well plates.
Data set [3] can be described thus: Microsomal stability assay, mouse liver microsomes. The note with it: metabolite identification. In general terms: Microsomes from liver hold many membrane-bound enzymes, among them those of drug oxidation.
A further data set concerns the target T2, Mtb Pks13-TE domain (Mycobacterium tuberculosis, UniProt I6X8D2).
T2 construct: The 283 residue long TE domain starting from residue 1451 in full length Pks13; His6 (TEV-cleavable) (N, cleaved yes); made in house; host or cells: E. coli BL21(DE3)pLysS
T2 sequence (I6X8D2 1451-1733 limits assumed): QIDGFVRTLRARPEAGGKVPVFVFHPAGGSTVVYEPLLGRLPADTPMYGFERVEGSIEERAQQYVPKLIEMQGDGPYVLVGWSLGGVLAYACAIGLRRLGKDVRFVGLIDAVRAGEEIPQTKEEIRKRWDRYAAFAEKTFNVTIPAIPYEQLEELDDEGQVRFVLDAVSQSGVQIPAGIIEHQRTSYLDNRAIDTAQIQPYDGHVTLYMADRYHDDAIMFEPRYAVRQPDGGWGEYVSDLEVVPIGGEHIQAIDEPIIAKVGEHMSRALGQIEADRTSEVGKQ
Description: biochemical. The note with it: mean ± SD of three independent measurements.

Chain of CYP2D6 (P10635 whole entry): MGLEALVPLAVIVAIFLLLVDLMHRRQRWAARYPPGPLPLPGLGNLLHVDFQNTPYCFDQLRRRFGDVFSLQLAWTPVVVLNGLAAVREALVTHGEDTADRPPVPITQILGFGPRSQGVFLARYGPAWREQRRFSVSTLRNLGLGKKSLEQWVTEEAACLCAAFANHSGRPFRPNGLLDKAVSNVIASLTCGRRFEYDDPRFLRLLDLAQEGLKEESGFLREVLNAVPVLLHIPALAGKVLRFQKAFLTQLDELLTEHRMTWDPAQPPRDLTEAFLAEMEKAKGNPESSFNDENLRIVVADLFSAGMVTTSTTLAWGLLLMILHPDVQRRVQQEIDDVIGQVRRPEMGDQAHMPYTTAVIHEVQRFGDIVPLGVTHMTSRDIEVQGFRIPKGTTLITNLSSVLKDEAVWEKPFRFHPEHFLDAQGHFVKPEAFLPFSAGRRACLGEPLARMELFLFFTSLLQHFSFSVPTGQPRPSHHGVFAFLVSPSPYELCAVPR

For `NNC(=O)c1ccncc1` [INH, Isoniazid], the “lung CFU after 2 weeks of treatment” value in the data set with M. tuberculosis H37Rv is approximately 6.7 log10. Besides, in the data set on M. tuberculosis Erdman, the “reduction in lung CFU counts compared with untreated control” value was approximately 1.1 log10 and the “reduction in spleen bacterial burden relative to untreated control” value is listed as approximately 2.5 log10 CFU.

As to `Clc1ccc(COC(Cn2ccnc2)c2ccc(Cl)cc2Cl)c(Cl)c1` (stereo not shown) [Miconazole], the concentration for half-maximal inhibition (IC50) (usually the concentration that inhibits the measured activity by half) against CYP1A2 is 1.1 µM; against CYP2C9, more than 10 µM; on CYP2D6, 0.2 µM.

For the compound `[H]/N=C(/N)N[C@H]1[C@H](O)[C@@H](O)[C@H](O[C@@H]2O[C@@H](C)[C@](O)(C=O)[C@H]2O[C@@H]2O[C@@H](CO)[C@H](O)[C@@H](O)[C@@H]2NC)[C@@H](N/C(N)=N\[H])[C@@H]1O` [SM, Streptomycin], in the data set on Mtb mc^27000 [1], the “MIC of SM in combination” value turned out to be 0.037 µM, the “improvement of MIC of SM in combination” value is approximately 2 fold and the MIC is 0.07 µM.

`CCOC(=O)c1c(-c2ccccc2)oc2ccc(O)c(CN3CCC(C)CC3)c12` [TAM1, ethyl 5-hydroxy-4-[(4-methyl-1-piperidinyl)methyl]-2-phenyl-1-benzofuran-3-carboxylate] returned an MIC against Mtb mc^27000 [2] (Mycobacterium tuberculosis) of 2.3 µM (≈ 0.905 µg/mL). For the same compound, in the data set “Stability in mouse serum”, the “stability in mouse serum” value is “cleaved to the inactive acid”. For the same compound, the “metabolism in mouse liver microsomes” value in data set [3] is listed as “hydroxylated”.

At Mtb Pks13-TE domain, `CCOC(=O)c1c(-c2ccccc2)oc2ccc(O)c(CN3CCCC(C)C3)c12` (stereo not shown) [TAM2, ethyl 5-hydroxy-4-[(3-methyl-1-piperidinyl)methyl]-2-phenyl-1-benzofuran-3-carboxylate] had a 50% inhibitory concentration (IC50) of 0.12 ± 0.02 µM. For the same compound, the MIC with Mtb mc^27000 [2] (Mycobacterium tuberculosis) came to 4.4 µM (≈ 1.73 µg/mL).

As to `CCOC(=O)c1c(-c2ccccc2)oc2ccc(O)c(CN3CCCC3)c12.Cl` [TAM3, ethyl 5-hydroxy-2-phenyl-4-(1-pyrrolidinylmethyl)-1-benzofuran-3-carboxylate hydrochloride], at Mtb Pks13-TE domain, the 50% inhibitory concentration (IC50) stood at 0.24 ± 0.02 µM. Also, the MIC against Mtb mc^27000 [2] is listed as 4.1 µM.

In the case of `CCOC(=O)c1c(-c2ccccc2)oc2ccc(O)c(CN3CCCCCC3)c12.Cl` [TAM4, ethyl 4-(1-azepanylmethyl)-5-hydroxy-2-phenyl-1-benzofuran-3-carboxylate hydrochloride], half-maximal inhibition on Mtb Pks13-TE domain (IC50) was put at 0.28 ± 0.03 µM. In the data set on Mtb mc^27000 [2], this compound gave an MIC of 4.6 µM.

Take `CCOC(=O)c1c(-c2ccccc2)oc2ccc(O)c(CN3CCOCC3)c12` [TAM5, ethyl 5-hydroxy-4-(4-morpholinylmethyl)-2-phenyl-1-benzofuran-3-carboxylate]: on Mtb Pks13-TE domain, it took 0.71 ± 0.05 µM to reach half-maximal inhibition (IC50). The compound further had an MIC in the data set with Mtb mc^27000 [2] (Mycobacterium tuberculosis) of 13.3 µM (≈ 5.07 µg/mL).

With `CCOC(=O)c1c(-c2ccccc2)oc2ccc(O)c(CN(C)C)c12` [TAM6, ethyl 4-[(dimethylamino)methyl]-5-hydroxy-2-phenyl-1-benzofuran-3-carboxylate], the IC50 at Mtb Pks13-TE domain amounted to 1.57 ± 0.15 µM. In the data set with Mtb mc^27000 [2] (Mycobacterium tuberculosis), this compound showed an MIC of 7.3 µM (≈ 2.48 µg/mL).

The compound `CCOC(=O)c1c(-c2ccccc2)oc2ccc(O)cc12` [TAM7, Ethyl 5-hydroxy-2-phenylbenzofuran-3-carboxylate] had an IC50 against Mtb Pks13-TE domain of 20 ± 1.9 µM. Also, the MIC against Mtb mc^27000 [2] (Mycobacterium tuberculosis) was determined as 20 µM (≈ 5.65 µg/mL).

The compound `CCOC(=O)c1c(-c2ccccc2)oc2ccc(O)c(Cc3ccccc3)c12` [TAM8, Ethyl 4-benzyl-5-hydroxy-2-phenylbenzofuran-3-carboxylate] displayed a 50% inhibitory concentration (IC50) against Mtb Pks13-TE domain of 11.9 ± 2.3 µM. This compound gave an MIC with Mtb mc^27000 [2] (Mycobacterium tuberculosis) of more than 40 µM.

On to `CCOC(=O)c1c(-c2ccccc2)oc2ccc(O)c(CN3CCCCC3)c12` [TAM9, Ethyl 5-hydroxy-2-phenyl-4-(piperidin-1-ylmethyl)benzofuran-3-carboxylate], for which the “Mouse Cli. (intrinsic clearance in mouse liver microsomes)” value amounted to 26.9 mL/min/g. The same compound returned a 50% inhibitory concentration (IC50) at Mtb Pks13-TE domain of 0.26 ± 0.04 µM. This compound showed an MIC in the data set with Mtb mc^27000 [2] (Mycobacterium tuberculosis) of 0.4 µM (≈ 0.152 µg/mL).

With `O=C(O)c1c(-c2ccccc2)oc2ccc(O)c(CN3CCCCC3)c12` [TAM10, 5-hydroxy-2-phenyl-4-(piperidin-1-ylmethyl)benzofuran-3-carboxylic acid], at Mtb Pks13-TE domain, the half-inhibitory concentration (IC50) stood at 6.6 ± 0.7 µM.

The compound `CCOC(=O)c1c(-c2ccccc2)oc2ccc(O)c(CC3CCCCC3)c12` [TAM11, Ethyl 4-(cyclohexylmethyl)-5-hydroxy-2-phenylbenzofuran-3-carboxylate] gave a half-inhibitory concentration (IC50) against Mtb Pks13-TE domain of 19.6 ± 1.4 µM. This compound also displayed an MIC in the data set with Mtb mc^27000 [2] (Mycobacterium tuberculosis) of 5.2 µM (≈ 1.97 µg/mL).

For the compound `CNC(=O)c1c(-c2ccccc2)oc2ccc(O)c(CN3CCCCC3)c12` [TAM12, 5-hydroxy-N-methyl-2-phenyl-4-(piperidin-1-ylmethyl)benzofuran-3-carboxamide], the “Mouse Cli. (intrinsic clearance in mouse liver microsomes)” value is 50 mL/min/g. For the same compound, the “better whole-cell activity than ethyl ester analog TAM9” value with Mtb mc^27000 [2] is 2 fold. In the data set with Mtb mc^27000 [2] (Mycobacterium tuberculosis), the MIC was 0.2 µM (≈ 0.0729 µg/mL).

Consider `CCOC(=O)c1c(-c2ccc(O)cc2)oc2ccc(O)c(CN3CCCCC3)c12` [TAM13, Ethyl 5-hydroxy-2-(4-hydroxyphenyl)-4-(piperidin-1-ylmethyl)benzofuran-3-carboxylate], for which the half-inhibitory concentration (IC50) at Mtb Pks13-TE domain turned out to be 0.17 ± 0.02 µM.

As to `CCOC(=O)c1c(-c2ccccc2)oc2ccc(OC)c(CN3CCCCC3)c12` [TAM14, Ethyl 5-methoxy-2-phenyl-4-(piperidin-1-ylmethyl)benzofuran-3-carboxylate], the midpoint of inhibition against Mtb Pks13-TE domain, the IC50, lay at 35.8 ± 2.2 µM.

As for `CCOC(=O)c1c(-c2ccccc2)oc2cccc(CN3CCCCC3)c12` [TAM15, Ethyl 2-phenyl-4-(piperidin-1-ylmethyl)benzofuran-3-carboxylate], the midpoint of inhibition at Mtb Pks13-TE domain, the IC50, lay at 2 ± 0.1 µM. Further, in the data set with Mtb mc^27000 [2] (Mycobacterium tuberculosis), the MIC worked out at 16 µM (≈ 5.82 µg/mL).

`CCOC(=O)c1c(-c2ccc(O)nc2)oc2ccc(O)c(CN3CCCCC3)c12` [TAM17, Ethyl 5-hydroxy-2-(6-hydroxypyridin-3-yl)-4-(piperidin-1-ylmethyl)benzofuran-3-carboxylate] displayed an IC50 on Mtb Pks13-TE domain of 0.36 ± 0.04 µM. Further, the MIC in the data set with Mtb mc^27000 [2] (Mycobacterium tuberculosis) turned out to be 4 µM (≈ 1.59 µg/mL).

On to `CNC(=O)c1c(-c2ccc(O)c(F)c2)oc2ccc(O)c(CN3CCCCC3)c12` [TAM18, 2-(3-fluoro-4-hydroxyphenyl)-5-hydroxy-N-methyl-4-(piperidin-1-ylmethyl)benzofuran-3-carboxamide], for which the IC50 against Mtb Pks13-TE domain came out at 0.33 ± 0.03 µM. The MIC in the data set on Mtb mc^27000 [2] (Mycobacterium tuberculosis) turned out to be 0.5 µM (≈ 0.199 µg/mL).

For the compound `CNC(=O)c1c(-c2ccc(O)cc2)oc2cc(O)cc(CN3CCCCC3)c12` [TAM19, 6-hydroxy-2-(4-hydroxyphenyl)-N-methyl-4-(piperidin-1-ylmethyl)benzofuran-3-carboxamide], the concentration for half-maximal inhibition (IC50) at Mtb Pks13-TE domain came to 0.57 ± 0.03 µM. In the data set on Mtb mc^27000 [2] (Mycobacterium tuberculosis), this compound displayed an MIC of 1 µM (≈ 0.38 µg/mL).

In the case of `CCOC(=O)c1c(-c2ccccc2)oc2cc(O)cc(CN3CCCCC3)c12` [TAM20, Ethyl 6-hydroxy-2-phenyl-4-(piperidin-1-ylmethyl)benzofuran-3-carboxylate], the IC50 on Mtb Pks13-TE domain amounted to 0.45 ± 0.04 µM. This compound displayed an MIC in the data set on Mtb mc^27000 [2] (Mycobacterium tuberculosis) of 1.1 µM (≈ 0.417 µg/mL).

Consider `CCOC(=O)c1c(-c2ccccc2)oc2ccc(O)c(CN3CCCC(CO)C3)c12` (stereo not shown) [TAM21, Ethyl 5-hydroxy-4-((3-(hydroxymethyl)piperidin-1-yl)methyl)-2-phenylbenzofuran-3-carboxylate], for which the half-inhibitory concentration (IC50) against Mtb Pks13-TE domain amounted to 0.42 ± 0.04 µM. This compound also returned an MIC with Mtb mc^27000 [2] (Mycobacterium tuberculosis) of 10 µM (≈ 4.09 µg/mL).

At Mtb Pks13-TE domain, `CCOC(=O)c1c(-c2ccccc2)oc2ccc(O)c(CN3CCCCC3CO)c12` (stereo not shown) [TAM22, Ethyl 5-hydroxy-4-((2-(hydroxymethyl)piperidin-1-yl)methyl)-2-phenylbenzofuran-3-carboxylate] showed an IC50 of more than 10 µM. Further, the MIC against Mtb mc^27000 [2] (Mycobacterium tuberculosis) is more than 10 µM.

On Mtb Pks13-TE domain, `CCOC(=O)c1c(-c2ccc(O)cc2)oc2ccc(O)c(CN3CCCC(CO)C3)c12` (stereo not shown) [TAM23, Ethyl 5-hydroxy-4-((3-(hydroxymethyl)piperidin-1-yl)methyl)-2-(4-hydroxyphenyl)benzofuran-3-carboxylate] displayed a half-maximal inhibitory concentration (IC50) of 0.38 ± 0.01 µM. Also, the MIC against Mtb mc^27000 [2] (Mycobacterium tuberculosis) stood at 2.5 µM (≈ 1.06 µg/mL).

`CNC(=O)c1c(-c2ccccc2)oc2ccc(O)c(CN3CCCC(CO)C3)c12` (stereo not shown) [TAM24, 5-Hydroxy-4-((3-(hydroxymethyl)piperidin-1-yl)methyl)-N-methyl-2-phenylbenzofuran-3-carboxamide]: the IC50 on Mtb Pks13-TE domain stood at 2.1 ± 0.3 µM. The same compound registered an MIC with Mtb mc^27000 [2] (Mycobacterium tuberculosis) of 0.5 µM (≈ 0.197 µg/mL).

Consider `COc1nc2ccc(Br)cc2cc1[C@@H](c1ccccc1)[C@@](O)(CCN(C)C)c1cccc2ccccc12` [TMC207, Bedaquiline], for which, in the data set on Mtb mc^27000 [1], the “MIC of TMC207 in combination” value amounted to 0.005 µM, the “improvement of MIC of TMC207 in combination” value was 2.6 fold and the MIC is 0.013 µM.
